Experimental data taken from US20240327429A1, “[1,3]Thiazolo[4,5-d]-pyrimidon-7-ones as inhibitors of NOX4” (Boehringer Ingelheim International GmbH, priority 2023, published 2024).

What was measured:
NOX2 = biological target: T1, NOX2 (Homo sapiens, UniProt P04839); test: NOX2 inhibition assay (L-012), human blood-derived granulocytes; type: cell-based; settings: fMLP/PMA stimulated
T1 construct: endogenous in cells; host or cells: freshly isolated human blood-derived granulocytes
T1 sequence (P04839 2-570 limits assumed): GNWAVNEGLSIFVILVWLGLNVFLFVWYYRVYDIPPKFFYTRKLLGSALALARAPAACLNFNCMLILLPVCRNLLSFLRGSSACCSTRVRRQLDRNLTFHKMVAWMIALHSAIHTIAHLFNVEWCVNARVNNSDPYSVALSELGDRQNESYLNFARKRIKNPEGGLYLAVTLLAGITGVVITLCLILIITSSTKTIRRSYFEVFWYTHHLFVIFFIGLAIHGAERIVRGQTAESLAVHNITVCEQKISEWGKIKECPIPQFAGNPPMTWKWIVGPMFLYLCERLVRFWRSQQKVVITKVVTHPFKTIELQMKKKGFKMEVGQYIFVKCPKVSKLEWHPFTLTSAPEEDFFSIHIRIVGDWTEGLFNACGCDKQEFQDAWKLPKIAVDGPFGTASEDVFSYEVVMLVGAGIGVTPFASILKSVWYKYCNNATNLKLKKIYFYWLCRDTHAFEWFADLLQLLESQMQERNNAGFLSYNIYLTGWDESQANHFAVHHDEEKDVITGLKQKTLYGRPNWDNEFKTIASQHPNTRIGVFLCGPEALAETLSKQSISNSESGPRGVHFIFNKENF
T1 sequence (P13498 2-195 partner limits assumed): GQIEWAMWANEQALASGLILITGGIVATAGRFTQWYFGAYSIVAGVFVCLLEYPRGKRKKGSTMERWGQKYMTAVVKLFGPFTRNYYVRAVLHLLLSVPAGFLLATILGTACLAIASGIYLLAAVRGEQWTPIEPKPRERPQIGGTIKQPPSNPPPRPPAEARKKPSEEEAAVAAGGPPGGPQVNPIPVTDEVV
Experimental: Evaluation of the NOX4 inhibitors on NOX2 activity is assessed in human blood-derived granulocytes.
Afterwards, freshly isolated granulocytes are added to the wells containing the compounds in assay buffer and incubated for 1 h at 37° C. Next, a solution of Nformylmethionine-leucyl-phenylalanine (fMLP; 730 nM), phorbol myristate acetate (PMA, 100 nM) (stimuli of ROS production) and L-012 (200 μM, ROS indicator) is added to the wells and the cells are incubated for additional 30 mins at 37° C. Afterwards luminescence is measured in a SpectraMax M5 microplate reader.

human NOX5 (hNOX5) = biological target: T2, human NOX5 (hNOX5) (Homo sapiens, UniProt Q96PH1); test: NOX5 inhibition assay (L-012), HEK293 cells stably overexpressing human NOX5; type: cell-based; settings: HEK293-hNOX5, PMA stimulated
T2 construct: expressed in transfected cells; host or cells: HEK293
T2 sequence (Q96PH1 1-765): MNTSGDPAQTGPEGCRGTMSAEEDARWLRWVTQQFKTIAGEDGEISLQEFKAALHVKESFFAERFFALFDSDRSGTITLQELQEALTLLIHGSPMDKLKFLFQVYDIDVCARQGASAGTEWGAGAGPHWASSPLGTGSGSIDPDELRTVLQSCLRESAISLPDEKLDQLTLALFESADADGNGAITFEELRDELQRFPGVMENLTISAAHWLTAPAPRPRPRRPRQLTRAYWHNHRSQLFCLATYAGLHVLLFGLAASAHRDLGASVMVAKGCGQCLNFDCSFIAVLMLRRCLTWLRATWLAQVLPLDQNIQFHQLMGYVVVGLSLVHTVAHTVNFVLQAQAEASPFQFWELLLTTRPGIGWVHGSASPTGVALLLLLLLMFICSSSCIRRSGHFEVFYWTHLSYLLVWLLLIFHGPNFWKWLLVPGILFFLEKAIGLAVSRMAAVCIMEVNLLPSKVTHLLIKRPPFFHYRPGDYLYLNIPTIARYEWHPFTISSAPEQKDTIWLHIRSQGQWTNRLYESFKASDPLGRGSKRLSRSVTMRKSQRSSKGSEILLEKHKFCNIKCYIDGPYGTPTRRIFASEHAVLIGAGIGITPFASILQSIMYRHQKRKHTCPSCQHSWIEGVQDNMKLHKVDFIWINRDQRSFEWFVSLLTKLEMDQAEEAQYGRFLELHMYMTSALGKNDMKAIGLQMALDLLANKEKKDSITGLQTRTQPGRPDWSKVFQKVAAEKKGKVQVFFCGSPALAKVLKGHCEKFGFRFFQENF
Experimental: The synthetic gene hNOX5 (Accession: Q96PH1) is cloned into pcDNA3.1_Zeo. […] The final construct is verified by sequencing.
Evaluation of the NOX4 inhibitors on NOX5 activity is assessed in HEK293 cells stably overexpressing human NOX5 (hNOX5).
Cells are seeded in 384 well plates over-night. […] Cells are then stimulated with PMA at 0.1 μM to induce NOX5-dependent ROS production. […] Luminescence is measured with an PHERAstar multimode reader.

human hepatocytes = test: Evaluation of hepatocyte clearance (metabolic stability); type: in vitro ADME; settings: 1 μM test compound, 5% human serum, Table 3
Experimental: The metabolic degradation of the test compound is assayed in a hepatocyte suspension. Hepatocytes (cryopreserved) are incubated in Dulbecco's modified eagle medium (supplemented with […] glucagon/500 mL, 2.5 mg insulin/500 mL and 3.75 mg/500 mL hydrocortisone) containing 5% human serum.
Following a 30 min preincubation in an incubator (37° C., 10% CO2) 5 μl of test compound solution (80 μM; from 2 mM in DMSO stock solution diluted 1:25 with medium) are added into 395 μl hepatocyte suspension (cell density in the range 0.25-5 Mio cells/mL, typically 1 Mio cells/mL; final concentration of test compound 1 μM, final DMSO concentration 0.05%).
The cells are incubated for six hours (incubator, orbital shaker) and samples (25 μl) are taken at 0, 0.5, 1, 2, 4 and 6 hours. Samples are transferred into acetonitrile and pelleted by centrifugation (5 min). The supernatant is transferred to a new 96-deepwell plate, evaporated under nitrogen and resuspended.
Decline of Parent Compound is Analyzed by HPLC-MS/MS.
CLint is Calculated as Follows:
CL_[…]=Dose/AUC=(C0/CD)/(AUD+clast/k)×1000/60. • C0: initial concentration in the incubation [μM], CD: cell density of vital cells [10^6 cells/mL], AUD: area under the data [μM×h], clast: concentration of last data point [μM], • k: slope of the regression line for parent decline [h-1].
The calculated in vitro hepatic intrinsic clearance can be scaled up to the intrinsic in vivo hepatic clearance and used to predict hepatic in vivo blood clearance (CL) by the use of a liver model (well stirred model).
CL_[…]_INVIVO[ml/min/kg]=(CL_[…][μL/min/10^6 cells]×hepatocellularity[10^6 cells/g liver]×liver factor[g/kg bodyweight])/1000
CL[ml/min/kg]=CL_[…]_INVIVO[ml/min/kg]×hepatic blood flow[ml/min/kg]/(CL_[…]_INVIVO[ml/min/kg]+hepatic blood flow[ml/min/kg])

Row | Compound | IC50 (NOX2) [µM] | IC50 (human NOX5 (hNOX5)) [µM] | Qh [%] (human hepatocytes)
1 | O=c1c2scnc2nc(SCc2ccc(Cl)cc2Cl)n1-c1cnc(O)c(F)c1 [Example 39] | > 100 | 47.9 | 26
2 | Cc1cc(F)ccc1CSc1nc2ncsc2c(=O)n1-c1ccc(O)nc1 [Example 29] | 36.9 | > 100 | 54
3 | O=c1c2scnc2nc(SCc2ccc(Cl)cc2)n1-c1ccc(O)nc1 [Example 25] | > 100 | > 100 | 41
4 | O=c1c2scnc2nc(SCc2c(F)cc(F)cc2F)n1-c1cnc(O)c(Cl)c1 [Example 48, 6-(5-Chloro-6-hydroxypyridin-3-yl)-5-((2,4,6-trifluorobenzyl)thio)thiazolo[4,5-d]pyri-midin-7(6H)-one] | > 100 | > 100 | 22
5 | O=c1c2scnc2nc(SCc2c(F)cc(F)cc2F)n1-c1ccc(O)cc1 [Example 15] | 10.3 | 59 | 61
6 | O=c1c2scnc2nc(SCc2ccc(Cl)cc2F)n1-c1cnc(O)nc1 [Example 53, 5-((4-Chloro-2-fluorobenzyl)thio)-6-(2-hydroxypyrimidin-5-yl)thiazolo[4,5-d]pyrimidin-7(6H)-one] | > 100 | > 100 | 13
7 | O=c1c2scnc2nc(SCc2ccc(C(F)(F)F)cc2)n1-c1ccc(O)nn1 [Example 66] | > 100 | 74.8 | 40
8 | O=c1c2scnc2nc(SCc2c(F)cc(F)cc2F)n1-c1ncc(O)cn1 [Example 21, 6-(5-Hydroxypyrimidin-2-yl)-5-((2,4,6-trifluorobenzyl)thio)thiazolo[4,5-d]pyrimidin-7(6H)-one] | > 100 | > 100 | 27
9 | O=c1c2scnc2nc(SCc2ccc(F)cc2Br)n1-c1cnc(O)c(F)c1 [Example 44] | > 100 | 68.1 | 29
10 | Cc1cc(Cl)ccc1CSc1nc2ncsc2c(=O)n1-c1ccc(O)nc1 [Example 23] | > 100 | > 100 | 55
11 | O=c1c2scnc2nc(SCc2ccc(C(F)(F)F)cc2F)n1-c1cnc(O)nc1 [Example 57] | > 100 | > 100 | 7
12 | Cc1cc(F)ccc1CSc1nc2ncsc2c(=O)n1-c1cnc(O)nc1 [Example 58] | > 100 | > 100 | 19
13 | O=c1c2scnc2nc(SCc2c(F)cc(F)cc2F)n1-c1cnc(O)nc1 [Example 59] | > 100 | > 100 | <4
14 | O=c1c2scnc2nc(SCc2c(F)ccc(F)c2F)n1-c1cnc(O)c(F)c1 [Example 45] | > 100 | 79 | 23

Results, then the compound that gave them:

Row | IC50 (NOX2) [µM] | IC50 (human NOX5 (hNOX5)) [µM] | Qh [%] (human hepatocytes) | Compound
15 | > 100 | 59.4 | 10 | O=c1c2scnc2nc(SCc2c(F)cc(F)cc2F)n1-c1cc(F)c(O)nc1F [Example 51, 6-(2,5-Difluoro-6-hydroxypyridin-3-yl)-5-((2,4,6-trifluorobenzyl)thio)thiazolo[4,5-d]-pyrimidin-7(6H)-one]
16 | > 100 | 93.3 | 37 | O=c1c2scnc2nc(SCc2ccc(C(F)(F)F)cc2)n1-c1ccc(O)nc1 [Example 27]
17 | > 30 | > 100 | 48 | N#Cc1cc(-n2c(SCc3c(F)cc(F)cc3F)nc3ncsc3c2=O)ccc1O [Example 18]
18 | > 30 | 13 | 79 | O=c1c2scnc2nc(SCc2c(F)cc(F)cc2F)n1-c1ccc(O)c(F)c1 [Example 11]
19 | > 30 | > 100 | 29 | O=c1c2scnc2nc(SCc2c(F)cc(F)cc2F)n1-c1ccc(O)nc1 [Example 28]
20 | > 100 | > 100 | 55 | O=c1c2scnc2nc(SCc2ccc(Cl)cc2F)n1-c1ccc(O)nn1 [Example 61, 5-((4-Chloro-2-fluorobenzyl)thio)-6-(6-hydroxypyridazin-3-yl)thiazolo[4,5-d]pyrimidin-7(6H)-one]
21 | > 100 | 46.5 | 8 | O=c1c2scnc2nc(SCc2ccc(Br)cc2F)n1-c1cnc(O)c(F)c1 [Example 34]
22 | > 100 | > 100 | 25 | O=c1c2scnc2nc(SCc2c(F)cc(F)cc2F)n1-c1cnc(O)cc1F [Example 49, 6-(4-Fluoro-6-hydroxypyridin-3-yl)-5-((2,4,6-trifluorobenzyl)thio)thiazolo[4,5-d]pyrimidin-7(6H)-one]
23 | > 100 | > 100 | 15 | O=c1c2scnc2nc(SCc2ccc(Cl)cc2)n1-c1cnc(O)c(F)c1 [Example 33]
24 | > 30 | 94.8 | 22 | O=c1c2scnc2nc(SCc2ccc(F)cc2)n1-c1ccc(O)nc1 [Example 30]
25 | 48.1 | > 100 | 52 | O=c1c2scnc2nc(SCc2c(F)cc(F)cc2F)n1-c1ccc(O)cn1 [Example 19]
26 | > 30 | > 100 | 42 | O=c1c2scnc2nc(SCc2c(F)cc(F)cc2F)n1-c1cc(F)c(O)c(F)c1 [Example 8]
27 | > 100 | > 100 | 8 | O=c1c2scnc2nc(SCc2ccc(C(F)(F)F)cc2)n1-c1cnc(O)nc1 [Example 60]
